# According to PMC10424179, “Disrupting Kaposi’s Sarcoma-Associated Herpesvirus (KSHV) Latent Replication with a Small Molecule Inhibitor” (Journal of Medicinal Chemistry, 2023):
# Like-named read-outs stand apart in the source and are kept apart here.
# How the values were obtained:
# [1] = target: T1, oligomerization-deficient mutant of a LANA C-terminal protein fragment (aa 1008–1146) (Human herpesvirus 8 (Kaposi's sarcoma-associated herpesvirus), UniProt Q76SB0); test: Microscale thermophoresis (MST) binding assay; parameters: species or system Kaposi's sarcoma-associated herpesvirus (KSHV); details: read-out: KD value (MST); LANA aa 1008–1146 mutant; means of at least three replicates
# T1 sequence (Q76SB0 1008-1146): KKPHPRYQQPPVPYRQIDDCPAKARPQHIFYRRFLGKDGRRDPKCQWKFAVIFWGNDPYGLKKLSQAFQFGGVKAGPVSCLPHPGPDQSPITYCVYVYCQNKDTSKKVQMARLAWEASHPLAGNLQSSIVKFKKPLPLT
# Description: In these assays, an oligomerization-deficient mutant of a LANA C-terminal protein fragment (aa 1008–1146) and an oligonucleotide representing LANA-binding site (LBS) 1 were used, which are convenient to use and handle for the described biophysical methods, while maintaining the essential DNA-binding interface.[25]
# Equation y = A2 + (A1-A2)/(1 + (x/x0)^p)
# 1.3 Microscale Thermophoresis (MST) Assay
# Microscale Thermophoresis Assay was done as mentioned in a previous publication. 2
# Caco-2 cell permeability = type: in vitro ADME; details: human, pH 7.4, Caco-2 monolayer, apical to basolateral
# Experimental: The next step was an in vitro ADMET profiling of the best seven compounds so far: 9, 11, 14, 19, 20, 21, and 27. The compounds were tested for their kinetic solubility (1% DMSO in PBS, pH 7.4), lipophilicity (chromatographic Log D7.4 value), cellular permeability (using Caco-2 cells), and metabolic stability (using mouse and human liver S9 fractions) (see Table 3).
# MTT Assay: Viability of HEK293 cells ~48 hours after treatment […]
# Fig S4: MTT assay for compounds 11, 14, 19, 20 and 21 using HEK293 cells. Values are means of […]
# Permeability of the compounds was assessed using Caco2 monolayers grown on Transwell® (3460 Costar, Corning). In brief, cells were seeded 60.000 cells/well in 12-well Transwell plates in DMEM medium supplemented with 10% FCS and 1% NEAA. Cells were grown for 7 to 9 days with medium replacement every other day until they reached a tight monolayer. Tightness was defined as transepithelial resistance (TEER) values >300 Ω/cm² (measured using an EVOM Volt-Ohmmeter, World Precision Instruments). At the day of permeability as say, the compound stock solutions in DMSO were diluted to 10µM in Krebs -Ringer-buffer (KRB, pH 7.4). Cells treated with KRB only served as control. Monolayer was washed two times with prewarmed KRB and incubated with 500 µl sample on the apical compartment. Samples from the basolateral side were drawn at t = 0, 15, 30, 60, 120, 180 and 300 min and replaced with fresh buffer. The plates were incubated for 5 h in a cell culture incubator with lateral shaking (200 rpm). TEER values were measured again at the end of the permeability test. Compound concentration was determined with HPLC-ESI-MS/MS in SRM mode and calculated for the cumulative transport. Values are means of three replicates.
# [2] = system: LANA-mediated replication of TR-containing plasmid pGTR4:73 in HEK293 cells; test: Cell-based replication assay (Southern blot); details: Homo sapiens
# Description: Figure 3 (A) Illustration of the replication assay. […] (C) Bar graph of the intensity of the pGTR4:73 band after digestion with MfeI and DpnI on the Southern blot shown in panel B at different concentrations for compound 20. Values are means of two replicates.
# For the replication assay (Figure 3A), plasmids containing four copies of the terminal repeat of the viral genome and a LANA expression cassette are transfected into HEK293 cells. […] The cells that can express LANA will now amplify the plasmids with the help of LANA and maintain them over several days of cell growth. Where LANA is not expressed, only the transfected plasmids remain and are slowly thinned out by cell growth. After transfection, cells are treated with the compounds or DMSO and allowed to grow for three days. Then, the plasmid DNA is isolated from the cell. The DNA is digested in two separate batches. First, to linearize them (MfeI) and second, with an enzyme (DpnI) that only digests DNA that has a specific methylation pattern derived from the bacteria, in which these plasmids had been amplified. […] One batch contains both enzymes, and only the replicated linearized DNA remains there. The second batch (control) contains only the linearizing enzyme. […] The DNA is separated on a gel by electrophoresis and transferred to a membrane for immobilization (Southern blot). The DNA can then be visualized on this membrane using an enzyme-labeled probe, since the enzyme can generate chemiluminescence with a specific substrate. This assay is designed to specifically probe the LANA-mediated replication of plasmid DNA indicating on-target cellular activity. We performed the assay in a concentration range between 15.625 and 62.5 μM. For compound 20, we observed the strongest inhibitory effect (Figure 3B,C).
# This assay is based on protocols described previously and was modified as described in the following. 4 8 x 10^5 HEK 293 cells were plated per well in a 6-well plate. […]
compound,measurement,setting,value
COc1ccc(-c2cc(C)c(-n3cc(-c4ccc(C(=O)O)cc4)nn3)cn2)c(Cl)c1 [Compound 20],Kd,[1],14.1 ± 3.9 µM
same,"Papp A→B at 5 h, 10 µM",Caco-2 cell permeability,10.3 ± 2.3 ×10⁻⁶ cm/s
same,inhibition at 62.5 µM,"[2]; 72 h, HEK293 cells, 62.5 μM, three days of treatment",67%
same,IC50,"[2]; 72 h, HEK293 cells, three days of treatment, estimated from Southern blot, read-out: IC50 value (southern blot)",33.2 ± 3.6 µM
same,IC50,"[2]; Fig S5B, HEK293 replication assay, read-out: x0 of logistic fit, sigmoidal plot of southern blot (converted)",33.2 µM
